# Source: paper PMC11855478, “Bicyclic N,S-Acetals Containing Fused Cysteine-Amide System as New Heterocyclic Class Targeting Human Farnesyltransferase (FTase-h)” (International Journal of Molecular Sciences, 2025)
# Where two headings read alike, the source gives them in different places.
# How the values were obtained:
# [1] = target: human farnesyltransferase (FTase) (Homo sapiens, UniProt P49354+P49356); test: FTase inhibitory assay (fluorescence, Dansyl-GCVLS); assay type: biochemical; details: for % FTI: inhibition of human FTase at 100 μM of tested compound, mean of two experiments; for IC50: human FTase in vitro
# Protocol: With 40 new products in hand, the determination of their inhibitory activity on human farnesyl-transferase (FTase) in vitro was first undertaken. Dimethyl sulfoxide (DMSO) was used as the negative control, and Chaetomellic acid A was the positive reference in all assays. At the outset, and in order to select only significant results, products with an inhibitory power greater than 60% at an initial screening concentration of 100 µM were retained for the determination of their IC50 and, therefore, for further discussion. Moreover, given the number of products tested, they are grouped into three subfamilies on the basis of the degree of the sulphur atom oxidation (series of sulfides, series of sulfoxides, and series of sulfones), and the results obtained are grouped in Table 1, Table 2 and Table 3.
# 3.3. FTase Inhibitory Assay
# Assays were realized in 96-well plates, prepared with a Biomek NKMC and a Biomek 3000 from Beckman Coulter, and read on a Wallac Victor fluorimeter from PerkinElmer. Per well, 20 µL of farnesyl pyrophosphate (10 μM) was added to 180 µL of a solution containing 2 µL of varied concentrations of potential inhibitors (dissolved in DMSO) and 178 μL of a solution composed of 10 μL of partially purified recombinant human FTase (15 µg mL^−1) and 1.0 µL of Dansyl-GCVLS peptide (in the following buffer: 5.6 mM DTT, 5.6 mM MgCl2, 12 μM ZnCl2 and 0.2% (w/v) octyl-β-D-glucopyranoside, 52 mM Tris/HCl, pH 7.5). Fluorescence was recorded for 15 min (0.7 s per well, 20 repeats) at 30 °C with an excitation filter at 340 nm and an emission filter of 486 nm. Each measurement was reproduced twice, in duplicate. The kinetic experiments were realized under the same conditions, either with FPP as varied substrate with a constant concentration of Dns-GCVLS of 2.5 μM or with Dns-GCVLS as varied substrate with a constant concentration of FPP of 10 μM. Non-linear regressions were performed using the Excel software.
# FTase = details: Figure 1, cited from earlier work
% FTI [1] [%],Compound,also measured
20,O=C(NCc1ccccc1)[C@@H]1CS(=O)(=O)[C@H]2c3ccccc3C(=O)N12 [7aA],–
28,O=C(NCc1cccc(C(F)(F)F)c1)[C@@H]1CS(=O)(=O)[C@H]2c3ccccc3C(=O)N12 [7aD],–
42,COc1cccc(CNC(=O)[C@@H]2CS(=O)(=O)[C@H]3c4ccccc4C(=O)N23)c1 [7aE],–
34,COc1ccc(CNC(=O)[C@@H]2CS(=O)(=O)[C@H]3c4ccccc4C(=O)N23)cc1 [7aF],–
47,COc1ccccc1CNC(=O)[C@@H]1CS(=O)(=O)[C@H]2c3ccccc3C(=O)N12 [7aG],–
53,COc1ccc(CNC(=O)C2CS(=O)(=O)C3c4ccccc4C(=O)N23)cc1OC (centres unmarked) [7aI],–
41,C[C@]12c3ccccc3C(=O)N1[C@H](C(=O)NCc1ccccc1)CS2(=O)=O [7bA],–
32,C[C@]12c3ccccc3C(=O)N1[C@H](C(=O)NCc1cccc(C(F)(F)F)c1)CS2(=O)=O [7bD],–
53,COc1cccc(CNC(=O)[C@@H]2CS(=O)(=O)[C@@]3(C)c4ccccc4C(=O)N23)c1 [7bE],–
44,COc1ccc(CNC(=O)[C@@H]2CS(=O)(=O)[C@@]3(C)c4ccccc4C(=O)N23)cc1 [7bF],–
74,COc1ccccc1CNC(=O)[C@@H]1CS(=O)(=O)[C@@]2(C)c3ccccc3C(=O)N12 [7bG],IC50 [1]: 0.0673 µM
76,C[C@]12c3ccccc3C(=O)N1[C@H](C(=O)NCc1ccc(Cl)cc1Cl)CS2(=O)=O [7bH],FTase inhibitory activity (in words) [1]: false positive
13,COc1ccc(CNC(=O)[C@@H]2CS(=O)(=O)[C@@]3(C)c4ccccc4C(=O)N23)cc1OC [7bI],–

# Second part, the compound before the results:
Compound,% FTI [1] [%],also measured
CC12c3ccccc3C(=O)N1C(C(=O)NCc1ccccc1)C[S+]2[O-] (centres unmarked) [5bA],30,–
C[C@]12c3ccccc3C(=O)N1[C@H](C(=O)NCc1cccc(C(F)(F)F)c1)C[S+]2[O-] (some centres unmarked) [5bD],43,–
COc1cccc(CNC(=O)[C@@H]2C[S+]([O-])[C@@]3(C)c4ccccc4C(=O)N23)c1 (some centres unmarked) [5bE],62,–
COc1ccc(CNC(=O)[C@@H]2C[S+]([O-])[C@@]3(C)c4ccccc4C(=O)N23)cc1 (some centres unmarked) [5bF],68,–
COc1ccccc1CNC(=O)[C@@H]1C[S+]([O-])[C@@]2(C)c3ccccc3C(=O)N12 (some centres unmarked) [5bG],87,IC50 [1]: 0.00403 µM
C[C@]12c3ccccc3C(=O)N1[C@H](C(=O)NCc1ccc(Cl)cc1Cl)C[S+]2[O-] (some centres unmarked) [5bH],31,–
COc1ccc(CNC(=O)[C@@H]2C[S+]([O-])[C@@]3(C)c4ccccc4C(=O)N23)cc1OC (some centres unmarked) [5bI],0,FTase inhibitory activity (in words) [1]: complete loss of inhibitory activity
COC1=C(OC)[C@H](O)[C@H](C/C=C(\C)CC/C=C(\C)CCC=C(C)C)[C@@H](C)C1=O [Antroquinonol],–,IC50 (FTase; known FTIs): 2.99 µM
CS(=O)(=O)CC[C@H](NC(=O)c1cccc(CNC(=O)[C@@H](N)CS)c1)C(=O)O [C-AMBA-M],–,IC50 (FTase; known FTIs): 0.06 µM
CN1C(=O)[C@]23CC4=CC=C[C@H](O)[C@H]4N2C(=O)[C@@]1(CO)SS3 [Gliotoxin],–,IC50 (FTase; known FTI): 80 µM; IC50 (FTase; known FTIs): 0.08 µM
CCCC[C@@H](C)/C=C(C)/C=C(\C)C(=O)NC1=C[C@@](O)(/C=C/C=C/C=C/C(=O)NC2=C(O)CCC2=O)[C@@H]2O[C@@H]2C1=O [Manumycin-A],–,IC50 (FTase; known FTIs): 0.03 µM
"CCCCCCCCCCCCCC/C(C(=O)O)=C(\C)C(=O)O [Ref., Chaetomellic acid A, reference compound]",100,IC50 [1]: 0.183 µM
"Cn1cncc1[C@@](N)(c1ccc(Cl)cc1)c1ccc2c(c1)c(-c1cccc(Cl)c1)cc(=O)n2C [Tipifarnib (R115777), Tipifarnib]",–,IC50 (FTase; known FTIs): 0.0079 µM
